From patent US5747239A, “Synthetic peptides specific for the detection of antibodies to HCV, diagnosis of HCV infection and preventions thereof as vaccines” (United Biomedical, Inc., priority 1994, dated 1998)

What was measured:
Format in all cases: binding, human
[1] = tested on: antibodies to HCV; test: NS-1 peptide ELISA, early and late HCV infection panels
Description: In addition, all sixteen NS-1 peptides were tested on panels of samples representing HCV-antibody positive donors (n=9) in an early stage of infection, namely plasmapheresis donors with the first occurrence of an ALT level >100 i.u./L, and those asymptomatic individuals (n=14) disqualified from blood donation because of a reactive result for anti-HIV or HBc, for whom the anti-HCV result probably represents a past infection.
These select panels were chosen from hundreds of HCV positive sera for their ability to recognize NS-1 antigens. For both groups, peptide designated as 232A (pep2) had the greatest immunoreactivity. Using pep2 as a standard, the relative immunoreactivity of each peptide was calculated (Table 3C).

[2] = tested on: antibodies to HCV; test: NS-1 peptide ELISA, Panel II (asymptomatic individuals, mainland China and Taiwan); settings: for % IP: NS-1 peptides, Panel II (CH1-CH7), relative to pep1 (231C)
Description: Wells of 96-well plates were coated for 1 hour at 37° C. with each of the 16 peptides (designated as peptides 241A-C, 231A-E, 232A-D, 233C, 234A-C), synthesized according to sequences derived from the NS-1 region (Table 3A), at 5 ug/mL at 100 uL per well in 10 mM NaHCO3 buffer, pH 9.5. Each peptide's immunoreactivity was measured as previously described (see Example 1), using an 8 member serum panel (Panel I).
A panel of serum samples from individuals coming from regions in which hepatitis C is endemic, namely mainland China and Taiwan, were tested for evidence of reactivity to these NS-1 protein derived peptides. Twenty-four samples were chosen from individuals who had no recognizable symptoms of non-A, non-B hepatitis and for whom the peptide based HCV EIA, Format C, as described in Example 11, was nonreactive. Seven of the 24 samples (29%) were reactive against one or more peptides from the NS-1 region, indicative of the presence of long term protective antibodies responsive to this region. This 7 member panel (designated as Panel II, CH1-CH7) was used to further characterize these NS-1 peptides for their immunoreactivity.
The peptide with the greatest reactivity against the serum Panel II again was pep1 (designated 231c in Table 3A). Using this peptide as a standard, the relative immunoreactivity for each of the other 15 peptides from the NS-1 region are calculated in Table 3A.

[3] = tested on: antibodies to HCV; test: Peptide ELISA for relative immunoreactivity, 8 member HCV serum panel (Panel I); settings: NS-3 peptides (Tables 4B-4D), relative to pep3 (279A)
[4] = tested on: antibodies to HCV; test: as above
Description: As an example to illustrate how relative (%) immunoreactivity for HCV synthetic peptides is measured, wells of 96-well plates are coated for 1 hour at 37° C., with each of the following peptides: IIH, V, VIIIE and pep11 at 5 ug/mL at 100 uL per well in 10 mM NaHCO3 buffer, pH 9.5. The peptide coated wells were then incubated with 250 uL of 3% by weight of gelatin in PBS in 37° C. for 1 hour to block non-specificprotein binding sites, followed by three washes with PBS containing 0.05% by volume of TWEEN 20 and then dried. The test specimens containing a panel of eight well-characterized HCV antibody positive patient sera were diluted with PBS containing 20% by volume normal goat serum, 1% by weight gelatin and 0.05% by volume TWEEN 20 at dilutions of 1:20 volume to volume, respectively. 200 uL of the diluted specimens were added to each of the wells and allowed to react for 15 minutes at 37° C.
The wells were then washed six times with 0.05% by volume TWEEN 20 in PBS in order to remove unbound antibodies. Horseradish peroxidase conjugated goat anti-human IgG was used as a second antibody tracer to bind with the HCV antibody-peptide antigen complex formed in positive wells. 100 uL of peroxidase labeled goat anti-human IgG at a dilution of 1:1800 in 1% by volume normal goat serum, 0.05% by volume TWEEN 20 in PBS was added to each well and incubated at 37° C. for another 15 minutes.
The wells were washed six times with 0.05% by volume TWEEN 20 PBS to remove unbound antibody and reacted with 100 uL of the substrate mixture containing 0.04% by weight orthophenylenediamine (OPD) and 0.12% by volume hydrogen peroxide in sodium citrate buffer, pH 5.0.
This substrate mixture was used to detect the peroxidase label by forming a colored product. Reactions were stopped by the addition of 100 uL of 1.0M H2 SO4 and the A492 mm measured. Results of relative immunoreactivity for each of the peptides obtained from this study are shown in Table A using peptide II H as the reference.

[5] = Early HCV Infection panel, n = 9
[6] = Late HCV Infection panel, n = 14

Row | Sequence | % Relative Immunoreactivity in comparison to Pep2 (232A) [1, 5] [%] | % Relative Immunoreactivity in comparison to Pep2 (232A) [1, 6] [%] | % IP [2] [%] | % Relative Immunoreactivity [3] [%] | other results
1 | ANGSGPDQRPYCWHYPPKPCGIVPAKSVCGPVYC [231B] | 30.9 | 46.7 | 96.4 |  | 
2 | AYMSKAHGIDPNIRTGVRTITTGSPITYSTYGKFLADGGCSGGAYDIIICDECHSTDAT [262E] |  |  |  | 3.6 | 
3 | CPERLASCRPLTDFDQGWGPISYANGSGPDQRPYCWHYPPKPCGIVPAKSVC [241C] | 44.7 | 84.7 | 93.6 |  | 
4 | CPERLASCRPLTDFDQGWGPISYANGSGPDQRPYCWHYPPKPCGIVPAKSVCGPVYC [231E] | 70.9 | 83.4 | 87.6 |  | 
5 | CRPLTDFDQGWGPISYANGSGPDQRPYCWHYPPKPCGIVPAKSVC [241B] | 32.7 | 75.0 | 92.9 |  | 
6 | CRPLTDFDQGWGPISYANGSGPDQRPYCWHYPPKPCGIVPAKSVCGPVYC [231D] | 23.3 | 43.5 | 65.3 |  | 
7 | DRSGAPTYSWGENDTDVFVLNNTRPPLGNWFGCTWMNSTGFTKVCGAPPC [232D] | 50.0 | 46.7 | 25.9 |  | Absorbance ([4]; Panel I sample 4): 785 mA; result with the remaining 7 panel members ([4]; Panel I without sample 4): negative
8 | EAACNWTRGERCDLEDRDRSELS [234A] | 9.5 | 15.7 | 20.5 |  | A492 nm by EIA (mA) ([2]; Panel II sample CH-1): 118 mA; A492 nm by EIA (mA) ([2]; Panel II sample CH-2): 232 mA; A492 nm by EIA (mA) ([2]; Panel II sample CH-3): 64 mA; A492 nm by EIA (mA) ([2]; Panel II sample CH-4): 227 mA; A492 nm by EIA (mA) ([2]; Panel II sample CH-5): 206 mA; A492 nm by EIA (mA) ([2]; Panel II sample CH-6): 202 mA; A492 nm by EIA (mA) ([2]; Panel II sample CH-7): 151 mA
9 | EVALSTTGEIPFYGKAIPLEVIKGGRHLIFCHSKKKCDEL [261B] |  |  |  | 3.1 | 
10 | FLADGGCSGGAYDIIICDECHSTDATSILGIGTVLDQAETAG [279B] |  |  |  | 3 | 
11 | GCSGGAYDIIICDECHSTDATSILGIGTVLDQAETAG [279A] |  |  |  | 100.0 | 
12 | LHCPTDCFRKHPDATYSRCGSGPWITPRCLVDYPYRLWHWPC [233C] | 9.9 | 17.5 | 16.8 |  | A492 nm by EIA (mA) ([2]; Panel II sample CH-1): 123 mA; A492 nm by EIA (mA) ([2]; Panel II sample CH-2): 174 mA; A492 nm by EIA (mA) ([2]; Panel II sample CH-3): 72 mA; A492 nm by EIA (mA) ([2]; Panel II sample CH-4): 238 mA; A492 nm by EIA (mA) ([2]; Panel II sample CH-5): 114 mA; A492 nm by EIA (mA) ([2]; Panel II sample CH-6): 175 mA; A492 nm by EIA (mA) ([2]; Panel II sample CH-7): 89 mA
